Measurements taken from ChEMBL document CHEMBL1201862, “PubChem BioAssay data set” (2004).
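A five-concentration, 48-hour dose response in 96-well plates underlies each endpoint, interpolated linearly between surrounding concentrations. At the GI50, growth is halved.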 The source made the active and inactive calls. Cut-off read from the data, not from the text of the source: active = GI50 up to about 1.1 µM and inactive = higher.

Assays:
Experiment in all cases: growth of human tumour cells (NCI), 48 h
HOP-18 = system: HOP-18
KM-20L2 = system: KM-20L2
PC-3 = system: PC-3
OVCAR-3 = system: OVCAR-3
Hs-578T = system: Hs-578T
SF-268 = system: SF-268
SK-OV-3 = system: SK-OV-3
OVCAR-8 = system: OVCAR-8
T47D = system: T47D
SNB-19 = system: SNB-19
786-0 = system: 786-0
NCI-H522 = system: NCI-H522
BT-549 = system: BT-549
LOX IMVI = system: LOX IMVI
NCI-H23 = system: NCI-H23
NCI-H460 = system: NCI-H460
COLO 205 = system: COLO 205
Malme-3M = system: Malme-3M
MOLT-4 = system: MOLT-4
UACC-62 = system: UACC-62
HT-29 = system: HT-29
DMS-273 = system: DMS-273
HOP-92 = system: HOP-92
MDA-MB-435 = system: MDA-MB-435
HOP-62 = system: HOP-62
RXF 631 = system: RXF 631
NCI/ADR-RES = system: NCI/ADR-RES
SF-295 = system: SF-295
U-251 = system: U-251
SN12C = system: SN12C
SF-539 = system: SF-539
OVCAR-4 = system: OVCAR-4
MDA-N = system: MDA-N
MCF7 = system: MCF7
DU-145 = system: DU-145
A498 = system: A498
HCT-15 = system: HCT-15
ACHN = system: ACHN
DLD-1 = system: DLD-1
SW-620 = system: SW-620
SNB-78 = system: SNB-78
LXFL 529 = system: LXFL 529
NCI-H226 = system: NCI-H226
OVCAR-5 = system: OVCAR-5
M14 = system: M14
HL-60 = system: HL-60
UACC-257 = system: UACC-257
RXF 393 = system: RXF 393
CCRF-CEM = system: CCRF-CEM
TK-10 = system: TK-10
EKVX = system: EKVX
HCT-116 = system: HCT-116
IGROV-1 = system: IGROV-1
SNB-75 = system: SNB-75
K562 = system: K562
SK-MEL-2 = system: SK-MEL-2
DMS-114 = system: DMS-114
RPMI-8226 = system: RPMI-8226
CAKI-1 = system: CAKI-1
XF498 = system: XF498
M19-MEL = system: M19-MEL
SK-MEL-28 = system: SK-MEL-28
SK-MEL-5 = system: SK-MEL-5
A549 = system: A549
UO-31 = system: UO-31
HCC 2998 = system: HCC 2998
KM12 = system: KM12

CC(=O)OCC1OC(n2c(=S)n(-c3ccc([N+](=O)[O-])cc3)c(=O)c3ccccc32)C(OC(C)=O)C(OC(C)=O)C1OC(C)=O (configuration not stated)
GI50 (HOP-18): 13.4 µM (inactive)
GI50 (KM-20L2): 28.3 µM (inactive)
GI50 (PC-3): 15.8 µM (inactive)
GI50 (OVCAR-3): 17.1 µM (inactive)
GI50 (Hs-578T): 4.46 µM (inactive)
GI50 (SF-268): 18.5 µM (inactive)
GI50 (SK-OV-3): 23.3 µM (inactive)
GI50 (OVCAR-8): 20.1 µM (inactive)
GI50 (T47D): 17.3 µM (inactive)
GI50 (SNB-19): 19.9 µM (inactive)
GI50 (786-0): 15.3 µM (inactive)
GI50 (NCI-H522): 15.4 µM (inactive)
GI50 (BT-549): 2.69 µM (inactive)
GI50 (LOX IMVI): 13.2 µM (inactive)
GI50 (NCI-H23): 21.3 µM (inactive)
GI50 (NCI-H460): 21.7 µM (inactive)
GI50 (COLO 205): 27.5 µM (inactive)
GI50 (Malme-3M): 15.2 µM (inactive)
GI50 (MOLT-4): 8.22 µM (inactive)
GI50 (UACC-62): 15.7 µM (inactive)
GI50 (HT-29): 21 µM (inactive)
GI50 (DMS-273): 21.9 µM (inactive)
GI50 (HOP-92): 25.5 µM (inactive)
GI50 (MDA-MB-435): 27 µM (inactive)
GI50 (HOP-62): 21.6 µM (inactive)
GI50 (RXF 631): 19.2 µM (inactive)
GI50 (NCI/ADR-RES): 30.7 µM (inactive)
GI50 (SF-295): 23.3 µM (inactive)
GI50 (U-251): 18.4 µM (inactive)
GI50 (SN12C): 19.1 µM (inactive)
GI50 (SF-539): 14.3 µM (inactive)
GI50 (OVCAR-4): 20.8 µM (inactive)
GI50 (MDA-N): 27.7 µM (inactive)
GI50 (MCF7): 16.7 µM (inactive)
GI50 (DU-145): 24.9 µM (inactive)
GI50 (A498): 25.5 µM (inactive)
GI50 (HCT-15): 29.3 µM

O=C(c1ccccc1)C1OC12C(=O)Nc1ccccc12 (configuration not stated)
GI50 (ACHN): 56.9 µM (inactive)
GI50 (KM-20L2): 28.1 µM (inactive)
GI50 (DLD-1): 32.7 µM (inactive)
GI50 (OVCAR-3): 34.8 µM (inactive)
GI50 (SW-620): 21.4 µM (inactive)
GI50 (SF-268): 59.8 µM (inactive)
GI50 (SNB-78): 43.5 µM (inactive)
GI50 (LXFL 529): 16.5 µM (inactive)
GI50 (SK-OV-3): 35.6 µM (inactive)
GI50 (OVCAR-8): 32.5 µM (inactive)
GI50 (SNB-19): 37.3 µM (inactive)
GI50 (786-0): 45.7 µM (inactive)
GI50 (NCI-H522): 13.3 µM (inactive)
GI50 (NCI-H226): 33.4 µM (inactive)
GI50 (OVCAR-5): > 100 µM (inactive)
GI50 (M14): 21.8 µM (inactive)
GI50 (HL-60): 3.27 µM (inactive)
GI50 (LOX IMVI): 45 µM (inactive)
GI50 (NCI-H23): 21.5 µM (inactive)
GI50 (NCI-H460): 41.7 µM (inactive)
GI50 (UACC-257): 35.7 µM (inactive)
GI50 (COLO 205): 18 µM (inactive)
GI50 (RXF 393): 20.9 µM (inactive)
GI50 (CCRF-CEM): 5.68 µM (inactive)
GI50 (Malme-3M): 29.6 µM (inactive)
GI50 (MOLT-4): 8.15 µM (inactive)
GI50 (UACC-62): 40.7 µM (inactive)
GI50 (TK-10): 40.3 µM (inactive)
GI50 (EKVX): 47.6 µM (inactive)
GI50 (HCT-116): 36.2 µM (inactive)
GI50 (IGROV-1): 47.6 µM (inactive)
GI50 (HT-29): 19.7 µM (inactive)
GI50 (DMS-273): 38 µM (inactive)
GI50 (HOP-92): 20.3 µM (inactive)
GI50 (SNB-75): 15.2 µM (inactive)
GI50 (K562): 4.5 µM (inactive)
GI50 (HOP-62): 62.5 µM (inactive)
GI50 (RXF 631): 46 µM (inactive)
GI50 (SF-295): 27 µM (inactive)
GI50 (SN12C): 49.4 µM (inactive)
GI50 (SK-MEL-2): 44.2 µM (inactive)
GI50 (DMS-114): 27 µM (inactive)
GI50 (SF-539): 23.7 µM (inactive)
GI50 (OVCAR-4): 47.8 µM (inactive)
GI50 (RPMI-8226): 20.7 µM (inactive)
GI50 (CAKI-1): 20.8 µM (inactive)
GI50 (XF498): 26.2 µM (inactive)
GI50 (A498): 73.1 µM (inactive)
GI50 (HCT-15): > 10 µM
GI50 (M19-MEL): 30.4 µM (inactive)
GI50 (SK-MEL-28): 29.6 µM (inactive)
GI50 (SK-MEL-5): 11.3 µM (inactive)
GI50 (A549): 46.7 µM (inactive)
GI50 (UO-31): 26.5 µM (inactive)

CCCCCCCCCCCCCP(=O)(O)OCC
GI50 (HOP-18): > 100 µM (inactive)
GI50 (ACHN): > 100 µM (inactive)
GI50 (KM-20L2): > 100 µM (inactive)
GI50 (DLD-1): > 100 µM (inactive)
GI50 (OVCAR-3): > 100 µM (inactive)
GI50 (SW-620): > 100 µM (inactive)
GI50 (SF-268): > 100 µM (inactive)
GI50 (SNB-78): > 100 µM (inactive)
GI50 (LXFL 529): > 100 µM (inactive)
GI50 (OVCAR-8): > 100 µM (inactive)
GI50 (SNB-19): > 100 µM (inactive)
GI50 (786-0): > 100 µM (inactive)
GI50 (NCI-H522): > 100 µM (inactive)
GI50 (NCI-H226): > 100 µM (inactive)
GI50 (OVCAR-5): > 100 µM (inactive)
GI50 (M14): > 100 µM (inactive)
GI50 (HL-60): > 100 µM (inactive)
GI50 (LOX IMVI): > 100 µM (inactive)
GI50 (NCI-H23): > 100 µM (inactive)
GI50 (HCC 2998): > 100 µM (inactive)
GI50 (NCI-H460): > 100 µM (inactive)
GI50 (UACC-257): > 100 µM (inactive)
GI50 (COLO 205): > 100 µM (inactive)
GI50 (RXF 393): > 100 µM (inactive)
GI50 (CCRF-CEM): > 100 µM (inactive)
GI50 (Malme-3M): > 100 µM (inactive)
GI50 (UACC-62): > 100 µM (inactive)
GI50 (TK-10): > 100 µM (inactive)
GI50 (EKVX): > 100 µM (inactive)
GI50 (HCT-116): > 100 µM (inactive)
GI50 (IGROV-1): > 100 µM (inactive)
GI50 (HT-29): > 100 µM (inactive)
GI50 (HOP-92): > 100 µM (inactive)
GI50 (SNB-75): > 100 µM (inactive)
GI50 (HOP-62): > 100 µM (inactive)
GI50 (RXF 631): > 100 µM (inactive)
GI50 (SF-295): > 100 µM (inactive)
GI50 (U-251): > 100 µM (inactive)
GI50 (SN12C): > 100 µM (inactive)
GI50 (SK-MEL-2): > 100 µM (inactive)
GI50 (DMS-114): > 100 µM (inactive)
GI50 (SF-539): > 100 µM (inactive)
GI50 (OVCAR-4): > 100 µM (inactive)
GI50 (A498): > 100 µM (inactive)
GI50 (HCT-15): > 100 µM
GI50 (M19-MEL): > 100 µM (inactive)
GI50 (SK-MEL-28): > 100 µM (inactive)
GI50 (SK-MEL-5): > 100 µM (inactive)
GI50 (KM12): > 100 µM (inactive)
GI50 (A549): > 100 µM (inactive)
GI50 (UO-31): > 100 µM (inactive)
